The values below come from US11926641B2, “Phosphonamidate butyrophilin ligands” (UNIVERSITY OF IOWA RESEARCH FOUNDATION, priority 2018, dated 2024).

The nature of one series: in vitro. Format: cell-based. The note with it: human. The procedure:
Cell viability. Viability assays were performed using K562 cells with various concentrations of test compounds. K562 cells (0.5×10^4 cells in 100 μL of RPMI media) were distributed into each well of a 96-well plate. Phosphonamidates were added for 72 hours, during the last 2 hours the cell-QB reagent was added, following which signals were quantified with a fluorescence plate reader. Viable cells were expressed as a percentage of untreated control cells after subtraction of a media-only blank.

Another series deals with human Vγ9Vδ2 T cells. Nature of the series: Expansion of Vγ9Vδ2 T cells from peripheral blood mononuclear cells. Format: cell-based. Particulars: ratio of expansion EC50 values. The procedure: Expansion of Vγ9Vδ2 T cells. […] Negative controls contained cells with interleukin 2 in the absence of test compounds. […] All experiments were performed at least three times using cells from at least two different donors.

The nature of series [1]: Stability in 50% pooled human plasma in PBS (LCMS). Format: in vitro ADME.
Description: Stability studies. Pooled human plasma was diluted to 50% with phosphate buffered saline at pH 7.5. Test compounds were added at a final concentration of 100 μM in a volume of 100 μL. Compounds were incubated for various times as indicated in the text, then extracted with 300 μL of LCMS grade acetonitrile and vigorous mixing. Insoluble debris was pelleted by centrifugation at 10,000 rcf for 2 minutes. 10 μL of the extract was evaluated by LCMS with a Waters Synapt G2-Si Mass Spectrometer in positive mode using a gradient of water and acetonitrile and a C18 column. The gradient started at 25% acetonitrile then increased to 80% acetonitrile over 9 minutes and held there for 1 minute before re-equilibration. […] The integrated values of these peaks were compared to those of t=0 minutes in plasma for each test compound and expressed as a fraction of the initial compound that was remaining at a given time point.
The subject of the next series is Vγ9Vδ2 T cells. Nature of the series: ELISA for interferon γ: Vγ9Vδ2 T cells mixed with compound-loaded K562 cells. Particulars: Homo sapiens; K562 cells loaded for 4 hours with test compound; 3:1 effector:target; 20 hours; read-out: EC50 [μM] (95% CI), interferon γ production by Vγ9Vδ2 T cells. Format: cell-based. As to the method:
ELISA for interferon γ. Interferon γ was measured by ELISA as previously described and according to manufacturer's directions (see Kilcollins, A. M., et al., J. Immunol. 2016, 197, 419-428; and Shippy, R. R., et al., J Med. Chem. 2017, 60, 2373-2382. Briefly, K562 cells were treated with test compounds for 4 hours, washed, then mixed with V79Vδ2 T cells that had been purified by negative selection. Each well contained a 3:1 effector: target ratio in 200 μL. After 20 hours, the concentration of interferon γ in the supernatant was determined. Data for representative compounds of the invention is shown in Table 2 (see FIG. 4).
A general note: An ELISA detects its analyte on a solid surface through an enzyme-linked reagent.

For series [2] the following is noted: cited from earlier work.
The mark [3] stands for this setting: 72 hour, read-out: IC50 [μM], cytotoxicity against K562 cells.

Molecules are shown by their SMILES. Read-outs that look alike come from different tables or passages of the source.

On to `Oc1cccc2ccccc12` [Compound 1-naphthol, 1-naphthol, reference compound], for which the IC50 – broadly, the midpoint of a concentration-inhibition curve – at 72 h in “in vitro” was above 100 µM.
In the case of `CCOC(=O)CNP(=O)(CC/C=C(\C)CO)Oc1ccc2ccccc2c1` (centres unmarked) [Compound 8, Ethyl 2-[[[(E)-5-hydroxy-4-methyl-pent-3-enyl]-(2-naphthyloxy)phosphoryl]amino]acetate], in the series on human Vγ9Vδ2 T cells, the “Fold difference vs cmpd 10” value amounted to 7500 and the “Fold difference vs cmpd 11” value is listed as 10. Also, in series [1], the t1/2 was above 24 h. Besides, in “in vitro” (setting [3]), the half-maximal inhibitory concentration (IC50) at 72 h was 28 µM. For the same molecule, in the series on Vγ9Vδ2 T cells, the EC50 (usually the concentration needed to bring the measured effect to its halfway point) turned out to be 0.093 µM.
In turn, `C/C(=C\CCP(=O)(OCOC(=O)C(C)(C)C)OCOC(=O)C(C)(C)C)CO` [Compound 104, reference compound] yielded a t1/2 in series [1] of 0.14 h.
For the molecule `COC(=O)CNP(=O)(CC/C=C(\C)CO)Oc1cccc2ccccc12` (centres unmarked) [Compound 4, Methyl 2-[[[(E)-5-hydroxy-4-methyl-pent-3-enyl]-(1-naphthyloxy)phosphoryl]amino]acetate], in the series on human Vγ9Vδ2 T cells, the “Fold difference vs cmpd 10” value is 9100 and the “Fold difference vs cmpd 11” value amounted to 12. In series [1], this molecule showed a t1/2 above 24 h. The IC50 at 72 h in “in vitro” (setting [3]) stood at 40 µM. In the series on Vγ9Vδ2 T cells, the EC50 turned out to be 0.13 µM.
Turning to `COC(=O)CNP(=O)(CC/C=C(\C)CO)Oc1ccc2ccccc2c1` (centres unmarked) [Compound 7, Methyl 2-[[[(E)-5-hydroxy-4-methyl-pent-3-enyl]-(2-naphthyloxy)phosphoryl]amino]acetate], in the series with human Vγ9Vδ2 T cells, the “Fold difference vs cmpd 10” value is listed as 6900 and the “Fold difference vs cmpd 11” value is 9.3. For the same molecule, the t1/2 in series [1] was above 24 h. Moreover, the IC50 at 72 h in the series “in vitro” (setting [3]) is above 100 µM. In the series with Vγ9Vδ2 T cells, the EC50 turned out to be 0.12 µM.
`Oc1ccccc1` [Phenol, reference compound] showed a half-inhibitory concentration (IC50) in “in vitro” above 100000 nM.
Turning to `CCOC(=O)CNP(=O)(CC/C=C(\C)CO)Oc1ccccc1` (centres unmarked) [Compound 2, Ethyl 2-[[[(E)-5-hydroxy-4-methyl-pent-3-enyl]-phenoxy-phosphoryl]amino]acetate], the half-inhibitory concentration (IC50) at 72 h in “in vitro” (setting [3]) was above 100 µM. Besides, the concentration giving a half-maximal response (EC50) with Vγ9Vδ2 T cells worked out at 0.17 µM.
Regarding `C/C(=C\CCP(=O)(NCC(=O)OC(C)C)Oc1ccccc1)CO` (centres unmarked) [Compound 3, Isopropyl 2-[[[(E)-5-hydroxy-4-methyl-pent-3-enyl]-phenoxy-phosphoryl]amino]acetate], in the series on human Vγ9Vδ2 T cells, the “Fold difference vs cmpd 10” value was 3600 and the “Fold difference vs cmpd 11” value came out at 4.9. The molecule further had a t1/2 in series [1] above 24 h. Besides, the half-inhibitory concentration (IC50) at 72 h in the series “in vitro” (setting [3]) is 23 µM. Further, the EC50 in the series on Vγ9Vδ2 T cells stood at 0.74 µM.
Regarding `CCOC(=O)CNP(=O)(CC/C=C(\C)CO)Oc1cccc2ccccc12` (centres unmarked) [Compound 5, Ethyl 2-[[[(E)-5-hydroxy-4-methyl-pent-3-enyl]-(1-naphthyloxy)phosphoryl]amino]acetate], in the series with human Vγ9Vδ2 T cells, the “Fold difference vs cmpd 10” value is 11000 and the “Fold difference vs cmpd 11” value turned out to be 15. The t1/2 in series [1] was above 24 h. For the same molecule, the half-inhibitory concentration (IC50) at 72 h in “in vitro” (setting [3]) amounted to 24 µM. Besides, the EC50 in the series with Vγ9Vδ2 T cells is 0.062 µM.
As for `C/C(=C\CCP(=O)(NCC(=O)OC(C)C)Oc1ccc2ccccc2c1)CO` (centres unmarked) [Compound 9, Isopropyl 2-[[[(E)-5-hydroxy-4-methyl-pent-3-enyl]-(2-naphthyloxy)phosphoryl]amino]acetate], in the series on human Vγ9Vδ2 T cells, the “Fold difference vs cmpd 10” value came out at 4900 and the “Fold difference vs cmpd 11” value is listed as 6.6. In series [1], this molecule displayed a t1/2 above 24 h. Besides, the 50% inhibitory concentration (IC50) at 72 h in “in vitro” (setting [3]) was above 100 µM. In the series with Vγ9Vδ2 T cells, the EC50 was 0.21 µM.
In the case of `C/C(=C\CCP(=O)(NCC(=O)OC(C)C)Oc1cccc2ccccc12)CO` (centres unmarked) [Compound 6, Isopropyl 2-[[[(E)-5-hydroxy-4-methyl-pent-3-enyl]-(1-naphthyloxy)phosphoryl]amino]acetate], in the series on human Vγ9Vδ2 T cells, the “Fold difference vs cmpd 10” value was found to be 12000 and the “Fold difference vs cmpd 11” value is 16. For the same molecule, in series [1], the t1/2 is on record as above 24 h. The IC50 at 72 h in “in vitro” (setting [3]) was above 100 µM. Moreover, in the series with Vγ9Vδ2 T cells, the concentration for a half-maximal effect (EC50) was found to be 0.29 µM.
With `C/C(=C\COP(=O)(O)OP(=O)(O)O)CO` [HMBPP], the stability in plasma entry in series [2] was “not stable in plasma”.
Molecule `Oc1ccc2ccccc2c1` [Compound 2-naphthol, 2-naphthol, reference compound] showed a half-inhibitory concentration (IC50) at 72 h in “in vitro” above 100 µM.
Take `COC(=O)CNP(=O)(CC/C=C(\C)CO)Oc1ccccc1` (centres unmarked) [Compound 1, Methyl 2-[[[(E)-5-hydroxy-4-methyl-pent-3-enyl]-phenoxy-phosphoryl]amino]acetate]: in the series on human Vγ9Vδ2 T cells, the “Fold difference vs cmpd 10” value is reported as 2700 and the “Fold difference vs cmpd 11” value turned out to be 3.6. In series [1], the t1/2 was above 24 h. Further, the half-inhibitory concentration (IC50) at 72 h in “in vitro” (setting [3]) is above 100 µM. For the same molecule, the EC50 in the series with Vγ9Vδ2 T cells was found to be 0.46 µM.
